{"source": "patent US12565501B2", "about": "“Muscarinic acetylcholine M1 receptor antagonists” (Contineum Therapeutics, Inc., priority 2019, dated 2026)"}
{"biological_target": "T1, human M1 receptor (Homo sapiens, UniProt P11229)", "T1 sequence (P11229 1-460)": "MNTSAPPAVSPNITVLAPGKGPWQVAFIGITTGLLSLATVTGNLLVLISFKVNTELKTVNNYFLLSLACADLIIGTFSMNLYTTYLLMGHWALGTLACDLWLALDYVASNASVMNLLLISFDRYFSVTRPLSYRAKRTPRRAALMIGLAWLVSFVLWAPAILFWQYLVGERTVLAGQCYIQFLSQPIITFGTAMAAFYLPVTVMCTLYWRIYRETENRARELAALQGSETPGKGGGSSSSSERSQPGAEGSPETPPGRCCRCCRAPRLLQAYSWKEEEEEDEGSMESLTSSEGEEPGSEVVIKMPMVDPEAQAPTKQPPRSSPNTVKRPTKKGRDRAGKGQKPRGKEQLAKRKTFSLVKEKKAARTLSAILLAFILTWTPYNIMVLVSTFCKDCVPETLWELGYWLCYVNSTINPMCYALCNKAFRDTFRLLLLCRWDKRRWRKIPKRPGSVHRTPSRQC", "assay": "In vitro functional assay of muscarinic acetylcholine receptor activity (aequorin calcium flux, reversal of EC80 acetylcholine response)", "format": "cell-based", "conditions": "CHO-K1 cells stably expressing human M1 receptor with aequorin; acetylcholine at EC80; calcium flux (luminescence); read-out: M1 IC50", "in_short": "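Antagonist mode: compound (final 0.1% DMSO) and coelenterazine-loaded M1/aequorin CHO-K1 cells incubated 30 min in the dark before EC80 acetylcholine addition. Calcium flash integrated as 40 s luminescence AUC; IC50 derived from dose-response curves.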", "units": {"IC50": "nM"}}
{"compound": "N#Cc1ccc(N2C3CCC2CN(C(=O)COC2(c4cc(F)ccc4Br)CC2)C3)nc1", "note": "[Example 220, 6-(3-(2-(1-(2-bromo-5-fluorophenyl)cyclopropoxy)acetyl)-3,8-diazabicyclo[3.2.1]-8-yl)nicotinonitrile]", "IC50": "< 10"}
{"compound": "N#Cc1ccc(N2C3CCC2CN(C(=O)COC2(c4ccc(F)cc4Br)CC2)C3)nc1", "note": "[Example 221, 6-(3-(2-(1-(2-bromo-4-fluorophenyl)cyclopropoxy)acetyl)-3,8-diazabicyclo[3.2.1]octan-8-yl)nicotinonitrile]", "IC50": "10 to 100"}
{"compound": "COc1ccc(C2(OCC(=O)N3CC4CCC(C3)N4c3ccc(C#N)cn3)CC2)cc1F", "note": "[Example 222, 6-(3-(2-(1-(3-fluoro-4-methoxyphenyl)cyclopropoxy)acetyl)-3,8-diazabicyclo[3.2.1]octan-8-yl)nicotinonitrile]", "IC50": "1000 to 10000"}
{"compound": "COc1ccc(C2(OCC(=O)N3CC4CCC(C3)N4c3ccc(C#N)cn3)CC2)c(F)c1", "note": "[Example 223, 6-(3-(2-(1-(2-fluoro-4-methoxyphenyl)cyclopropoxy)acetyl)-3,8-diazabicyclo[3.2.1]octan-8-yl)nicotinonitrile]", "IC50": "> 1000"}
{"compound": "COc1cc(C2(OCC(=O)N3CC4CCC(C3)N4c3ccc(C#N)cn3)CC2)ccc1F", "note": "[Example 224, 6-(3-(2-(1-(4-fluoro-3-methoxyphenyl)cyclopropoxy)acetyl)-3,8-diazabicyclo[3.2.1]octan-8-yl)nicotinonitrile]", "IC50": "10 to 100"}
{"compound": "COc1ccc(C2(OCC(=O)N3CC4CCC(C3)N4c3ccc(C#N)cn3)CC2)cc1OC", "note": "[Example 225, 6-(3-(2-(1-(3,4-dimethoxyphenyl)cyclopropoxy)acetyl)-3,8-diazabicyclo[3.2.1]octan-8-yl)nicotinonitrile]", "IC50": "100 to 1000"}
{"compound": "COc1ccc(Br)c(C2(OCC(=O)N3CC4CCC(C3)N4c3ccc(C#N)cn3)CC2)c1", "note": "[Example 226, 6-(3-(2-(1-(2-bromo-5-methoxyphenyl)cyclopropoxy)acetyl)-3,8-diazabicyclo[3.2.1]octan-8-yl)nicotinonitrile]", "IC50": "< 10"}
{"compound": "N#Cc1ccc(N2C3CCC2CN(C(=O)COC2(c4ccncc4)CC2)C3)nc1", "note": "[Example 227, 6-(3-(2-(1-(pyridin-4-yl)cyclopropoxy)acetyl)-3,8-diazabicyclo[3.2.1]octan-8-yl)nicotinonitrile]", "IC50": "100 to 1000"}
{"compound": "N#Cc1ccc(N2C3CCC2CN(C(=O)COC2(c4ccncc4F)CC2)C3)nc1", "note": "[Example 228, 6-(3-(2-(1-(3-fluoropyridin-4-yl)cyclopropoxy)acetyl)-3,8-diazabicyclo[3.2.1]octan-8-yl)nicotinonitrile]", "IC50": "10 to 100"}
{"compound": "N#Cc1ccc(N2C3CCC2CN(C(=O)COC2(c4cncc(F)c4)CC2)C3)nc1", "note": "[Example 229, 6-(3-(2-(1-(5-fluoropyridin-3-yl)cyclopropoxy)acetyl)-3,8-diazabicyclo[3.2.1]octan-8-yl)nicotinonitrile]", "IC50": "100 to 1000"}
{"compound": "COc1cncc(C2(OCC(=O)N3CC4CCC(C3)N4c3ccc(C#N)cn3)CC2)c1", "note": "[Example 230, 6-(3-(2-(1-(5-methoxypyridin-3-yl)cyclopropoxy)acetyl)-3,8-diazabicyclo[3.2.1]octan-8-yl)nicotinonitrile]", "IC50": "< 10"}
{"compound": "N#Cc1ccc(N2C3CCC2CN(C(=O)COC2(c4cccc5nccnc45)CC2)C3)nc1", "note": "[Example 231, 6-(3-(2-(1-(quinoxalin-5-yl)cyclopropoxy)acetyl)-3,8-diazabicyclo[3.2.1]octan-8-yl)nicotinonitrile]", "IC50": "10 to 100"}
{"compound": "N#Cc1ccc(N2C3CCC2CN(C(=O)COCC2(c4cccc5ncnn45)CC2)C3)nc1", "note": "[Example 232, 6-(3-(2-((1-([1,2,4]triazolo[1,5-a]pyridin-5-yl)cyclopropyl)methoxy)acetyl)-3,8-diazabicyclo[3.2.1]octan-8-yl)nicotinonitrile]", "IC50": "< 10"}
{"compound": "COc1cncc(C2(OCC(=O)N3CC4CCC(C3)N4c3ccc(C#N)cn3)CCC2)c1", "note": "[Example 233, 6-(3-(2-(1-(5-methoxypyridin-3-yl)cyclobutoxy)acetyl)-3,8-diazabicyclo[3.2.1]octan-8-yl)nicotinonitrile]", "IC50": "< 10"}
{"compound": "N#Cc1ccc(N2C3CCC2CN(C(=O)COC2(c4ccc(F)cc4)CCC2)C3)nc1", "note": "[Example 234, 6-(3-(2-(1-(4-fluorophenyl)cyclobutoxy)acetyl)-3,8-diazabicyclo[3.2.1]octan-8-yl)nicotinonitrile]", "IC50": "10 to 100"}
{"compound": "N#Cc1ccc(N2C3CCC2CN(C(=O)COC2(c4cccc(F)c4)CCC2)C3)nc1", "note": "[Example 235, 6-(3-(2-(1-(3-fluorophenyl)cyclobutoxy)acetyl)-3,8-diazabicyclo[3.2.1]octan-8-yl)nicotinonitrile]", "IC50": "10 to 100"}
{"compound": "N#Cc1ccc(N2C3CCC2CN(C(=O)COC2(c4ccccc4F)CCC2)C3)nc1", "note": "[Example 236, 6-(3-(2-(1-(2-fluorophenyl)cyclobutoxy)acetyl)-3,8-diazabicyclo[3.2.1]octan-8-yl)nicotinonitrile]", "IC50": "100 to 1000"}
{"compound": "COc1cccc(C2(OCC(=O)N3CC4CCC(C3)N4c3ccc(C#N)cn3)CCC2)c1", "note": "[Example 237, 6-(3-(2-(1-(3-methoxyphenyl)cyclobutoxy)acetyl)-3,8-diazabicyclo[3.2.1]octan-8-yl)nicotinonitrile]", "IC50": "< 10"}
{"compound": "N#Cc1ccc(N2C3CCC2CN(C(=O)COC2(c4cccc(OC(F)(F)F)c4)CCC2)C3)nc1", "note": "[Example 238, 6-(3-(2-(1-(3-(trifluoromethoxy)phenyl)cyclobutoxy)acetyl)-3,8-diazabicyclo[3.2.1]octan-8-yl)nicotinonitrile]", "IC50": "100 to 1000"}
{"compound": "N#Cc1ccc(N2C3CCC2CN(C(=O)COC2(c4ccc(F)cc4)COC2)C3)nc1", "note": "[Example 240, (3-(2-((3-(4-fluorophenyl)oxetan-3-yl)oxy)acetyl)-3,8-diazabicyclo[3.2.1]octan-8-yl)nicotinonitrile]", "IC50": "100 to 1000"}
{"compound": "N#Cc1ccc(N2C3CCC2CN(C(=O)COC2(c4ccc(F)c(F)c4)COC2)C3)nc1", "note": "[Example 241, (3-(2-((3-(3,4-difluorophenyl)oxetan-3-yl)oxy)acetyl)-3,8-diazabicyclo[3.2.1]octan-8-yl)nicotinonitrile]", "IC50": "1000 to 10000"}
{"compound": "COc1cccc(C2(OCC(=O)N3CC4CCC(C3)N4c3ccc(C#N)cn3)COC2)c1", "note": "[Example 242, (3-(2-((3-(3-methoxyphenyl)oxetan-3-yl)oxy)acetyl)-3,8-diazabicyclo[3.2.1]octan-8-yl)nicotinonitrile]", "IC50": "10 to 100"}
{"compound": "COc1cncc(C2(OCC(=O)N3CC4CCC(C3)N4c3ccc(C#N)cn3)COC2)c1", "note": "[Example 243, 6-(3-(2-((3-(5-methoxypyridin-3-yl)oxetan-3-yl)oxy)acetyl)-3,8-diazabicyclo [3.2.1]octan-8-yl)nicotinonitrile]", "IC50": "100 to 1000"}
{"compound": "COc1cc(C2(OCC(=O)N3CC4CCC(C3)N4c3ccc(C#N)cn3)COC2)ccn1", "note": "[Example 244, 6-(3-(2-((3-(2-methoxypyridin-4-yl)oxetan-3-yl)oxy)acetyl)-3,8-diazabicyclo[3.2.1]octan-8-yl)nicotinonitrile]", "IC50": "1000 to 10000"}
{"compound": "N#Cc1ccc(N2C3CCC2CN(C(=O)COC2(c4cccnc4)CCC2)C3)nc1", "note": "[Example 245, 6-(3-(2-(1-(pyridin-3-yl)cyclobutoxy)acetyl)-3,8-diazabicyclo[3.2.1]octan-8-yl)nicotinonitrile]", "IC50": "100 to 1000"}
{"compound": "N#Cc1ccc(N2C3CCC2CN(C(=O)COC2(c4ccccn4)CCC2)C3)nc1", "note": "[Example 246, 6-(3-(2-(1-(pyridin-2-yl)cyclobutoxy)acetyl)-3,8-diazabicyclo[3.2.1]octan-8-yl)nicotinonitrile]", "IC50": "1000 to 10000"}
{"compound": "N#Cc1ccc(N2C3CCC2CN(C(=O)COC2(c4ccncc4F)CCC2)C3)nc1", "note": "[Example 247, 6-(3-(2-(1-(3-fluoropyridin-4-yl)cyclobutoxy)acetyl)-3,8-diazabicyclo[3.2.1]octan-8-yl)nicotinonitrile]", "IC50": "< 10"}
{"compound": "N#Cc1ccc(N2C3CCC2CN(C(=O)COC2(c4cc(F)ccn4)CCC2)C3)nc1", "note": "[Example 248, 6-(3-(2-(1-(4-fluoropyridin-2-yl)cyclobutoxy)acetyl)-3,8-diazabicyclo[3.2.1]octan-8-yl)nicotinonitrile]", "IC50": "100 to 1000"}
{"compound": "N#Cc1ccc(N2C3CCC2CN(C(=O)COC2(c4ccc(F)cn4)CCC2)C3)nc1", "note": "[Example 249, 6-(3-(2-(1-(5-fluoropyridin-2-yl)cyclobutoxy)acetyl)-3,8-diazabicyclo[3.2.1]octan-8-yl)nicotinonitrile]", "IC50": "10 to 100"}
{"compound": "N#Cc1ccc(N2C3CCC2CN(C(=O)COC2(c4cncc(F)c4)CCC2)C3)nc1", "note": "[Example 251, 6-(3-(2-(1-(5-fluoropyridin-3-yl)cyclobutoxy)acetyl)-3,8-diazabicyclo[3.2.1]octan-8-yl)nicotinonitrile]", "IC50": "100 to 1000"}
{"compound": "COc1cc(C2(OCC(=O)N3CC4CCC(C3)N4c3ccc(C#N)cn3)CCC2)ccn1", "note": "[Example 252, 6-(3-(2-(1-(2-methoxypyridin-4-yl)cyclobutoxy)acetyl)-3,8-diazabicyclo[3.2.1]octan-8-yl)nicotinonitrile]", "IC50": "10 to 100"}
{"compound": "COc1cccc(C2(OCC(=O)N3CC4CCC(C3)N4c3ccc(C#N)cn3)CCC2)n1", "note": "[Example 253, 6-(3-(2-(1-(6-methoxypyridin-2-yl)cyclobutoxy)acetyl)-3,8-diazabicyclo[3.2.1]octan-8-yl)nicotinonitrile]", "IC50": "< 10"}
{"compound": "COc1ncccc1C1(OCC(=O)N2CC3CCC(C2)N3c2ccc(C#N)cn2)CCC1", "note": "[Example 254, 6-(3-(2-(1-(2-methoxypyridin-3-yl)cyclobutoxy)acetyl)-3,8-diazabicyclo[3.2.1]octan-8-yl)nicotinonitrile]", "IC50": "< 10"}
